Molecular target: T1, TLR8 (Homo sapiens, UniProt Q9NR97)
T1 sequence (Q9NR97 27-827): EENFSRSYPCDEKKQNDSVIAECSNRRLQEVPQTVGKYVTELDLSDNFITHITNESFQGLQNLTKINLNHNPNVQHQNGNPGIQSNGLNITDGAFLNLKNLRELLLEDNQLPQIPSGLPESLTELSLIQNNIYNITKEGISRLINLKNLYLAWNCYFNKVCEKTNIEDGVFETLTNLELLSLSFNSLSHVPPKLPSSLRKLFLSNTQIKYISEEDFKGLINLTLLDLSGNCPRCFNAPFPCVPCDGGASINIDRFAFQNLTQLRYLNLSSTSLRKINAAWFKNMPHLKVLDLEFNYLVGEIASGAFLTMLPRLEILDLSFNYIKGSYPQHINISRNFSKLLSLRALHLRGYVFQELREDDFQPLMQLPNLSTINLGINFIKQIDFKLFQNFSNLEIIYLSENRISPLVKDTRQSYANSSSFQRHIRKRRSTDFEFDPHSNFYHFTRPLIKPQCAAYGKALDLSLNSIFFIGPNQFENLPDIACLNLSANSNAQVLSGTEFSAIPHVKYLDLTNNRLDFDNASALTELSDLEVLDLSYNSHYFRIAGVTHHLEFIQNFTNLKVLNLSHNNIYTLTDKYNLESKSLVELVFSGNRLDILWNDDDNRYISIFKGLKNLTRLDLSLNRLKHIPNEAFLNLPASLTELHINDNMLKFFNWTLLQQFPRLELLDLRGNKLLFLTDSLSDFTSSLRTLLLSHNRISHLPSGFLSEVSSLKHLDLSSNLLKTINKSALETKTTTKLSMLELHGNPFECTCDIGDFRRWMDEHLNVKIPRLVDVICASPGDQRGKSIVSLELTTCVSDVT
Test: ITC
Format: binding

Kd: 12 µM
Compound: O=c1ccn([C@@H]2O[C@H](CO)[C@@H](O)[C@H]2O)c(=O)[nH]1 [uridine]

— publication PMC8285539, “Tetrasubstituted imidazoles as incognito Toll-like receptor 8 a(nta)gonists” (Nature Communications, 2021)
